From ChEMBL document CHEMBL1124635, “A probe for octopamine receptors: synthesis of 2-[(4-azido-2,6-diethylphenyl)imino]imidazolidine and its tritiated derivative, a potent reversible-irreversible activator of octopamine-sensitive adenylate cyclase” (J Med Chem, 1989)

Key:
[1] = Ratio of (Ka) of octopamine to that of compound; assay type: ADME
Lampyridae [2] = assay: V max is determined from stimulation of firefly light organ adenylate cyclase; assay type: functional
[3] = Kinetic constant (Ka) of compound against octopamine receptor; assay type: ADME
Lampyridae [4] = assay: Vmax is determined from stimulation of firefly light organ adenylate cyclase; assay type: functional

| Compound | Ratio [1] | Vmax (Lampyridae [2]) | further results |
| --- | --- | --- | --- |
| CCc1cc(N)cc(CC)c1N=C1NCCN1 | 1.3 |  |  |
| [3H]c1c(CC)c(N=C2NCCN2)c(CC)c([3H])c1N=[N+]=[N-] | 86 |  |  |
| CN(CCCl)c1cc(Cl)c(NC2=NCCN2)c(Cl)c1 |  | 5% |  |
| CCc1c(Br)c(N)c(Br)c(CC)c1N=C1NCCN1 | 15 |  |  |
| CCc1cc(N=[N+]=[N-])cc(CC)c1NC1=NCCN1 |  | 100% | Vmax (Lampyridae [2]; tested as the 3H-labelled form): 100% |
| CCc1cc(N)cc(CC)c1NC1=NCCN1 |  | 82% |  |
| CCc1c(Br)c(N)c(Br)c(CC)c1NC1=NCCN1 |  | 24% |  |
| NCC(O)c1ccc(O)cc1 (stereo not given) [OCTOPAMINE] | 1 | 100% |  |
| CN(CCCl)c1cc(Cl)c(N=C2NCCN2)c(Cl)c1 | 6 |  |  |
| CCc1cc(N=[N+]=[N-])cc(CC)c1N=C1NCCN1 | 70 |  | Ka [3]: 350 nM |
| CCc1cccc(CC)c1NC1=NCCN1 | 12 |  | Vmax (Lampyridae [4]): 100% |
